Source: ChEMBL document CHEMBL1909046, “DrugMatrix in vitro pharmacology data”

Legend:
[1] = biological target: T1, 5-hydroxytryptamine receptor 2C (Homo sapiens, UniProt P28335); assay: DRUGMATRIX: Serotonin (5-Hydroxytryptamine) 5-HT2C radioligand binding (ligand: [3H] Mesulergine); assay type: cell membranes, CHO-K1, Membrane; conditions: cho-k1; Not Active = under 50% inhibition at 10 µM
T1 sequence (P28335 whole entry): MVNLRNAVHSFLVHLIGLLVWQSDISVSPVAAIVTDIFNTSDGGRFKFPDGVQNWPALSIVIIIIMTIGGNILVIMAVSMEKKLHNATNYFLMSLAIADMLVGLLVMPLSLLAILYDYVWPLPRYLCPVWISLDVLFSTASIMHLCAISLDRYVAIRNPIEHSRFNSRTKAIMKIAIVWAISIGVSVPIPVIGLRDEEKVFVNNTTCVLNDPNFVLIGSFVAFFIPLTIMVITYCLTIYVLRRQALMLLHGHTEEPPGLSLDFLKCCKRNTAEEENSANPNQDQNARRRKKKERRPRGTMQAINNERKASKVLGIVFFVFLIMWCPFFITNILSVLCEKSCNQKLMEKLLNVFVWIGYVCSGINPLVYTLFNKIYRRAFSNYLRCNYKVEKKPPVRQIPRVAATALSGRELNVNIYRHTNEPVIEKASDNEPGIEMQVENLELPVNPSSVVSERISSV

[2] = biological target: 5-hydroxytryptamine receptor 6 (Homo sapiens, UniProt P50406); assay type: cell membranes, HeLa, Membrane; conditions: hela; note: in other assays of this panel Not Active means under 50% inhibition at 10 µM
[3] = DRUGMATRIX: Nicotinic Acetylcholine radioligand binding (ligand: [125I] Epibatidine); assay type: cell membranes, Membrane; conditions: imr-32; Not Active = under 50% inhibition at 10 µM
[4] = biological target: Delta-type opioid receptor (Homo sapiens, UniProt P41143); assay type: cell membranes, Membrane; conditions: hek293; note: in other assays of this panel Not Active means under 50% inhibition at 10 µM
[5] = DRUGMATRIX: Phosphodiesterase PDE3 enzyme inhibition (substrate: [3H]cAMP + cAMP); assay type: tissue-based, Homo sapiens; conditions: platelet; Not Active = under 50% inhibition at 10 µM
[6] = biological target: T2, Receptor-type tyrosine-protein phosphatase C (Homo sapiens, UniProt P08575); set-up: species or system Escherichia coli;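 note: inhibition of CD45 enzyme activity measured using DiFMUP as substrate; in other assays of this panel Not Active means under 50% inhibition at 10 µM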
T2 sequence (P08575 whole entry): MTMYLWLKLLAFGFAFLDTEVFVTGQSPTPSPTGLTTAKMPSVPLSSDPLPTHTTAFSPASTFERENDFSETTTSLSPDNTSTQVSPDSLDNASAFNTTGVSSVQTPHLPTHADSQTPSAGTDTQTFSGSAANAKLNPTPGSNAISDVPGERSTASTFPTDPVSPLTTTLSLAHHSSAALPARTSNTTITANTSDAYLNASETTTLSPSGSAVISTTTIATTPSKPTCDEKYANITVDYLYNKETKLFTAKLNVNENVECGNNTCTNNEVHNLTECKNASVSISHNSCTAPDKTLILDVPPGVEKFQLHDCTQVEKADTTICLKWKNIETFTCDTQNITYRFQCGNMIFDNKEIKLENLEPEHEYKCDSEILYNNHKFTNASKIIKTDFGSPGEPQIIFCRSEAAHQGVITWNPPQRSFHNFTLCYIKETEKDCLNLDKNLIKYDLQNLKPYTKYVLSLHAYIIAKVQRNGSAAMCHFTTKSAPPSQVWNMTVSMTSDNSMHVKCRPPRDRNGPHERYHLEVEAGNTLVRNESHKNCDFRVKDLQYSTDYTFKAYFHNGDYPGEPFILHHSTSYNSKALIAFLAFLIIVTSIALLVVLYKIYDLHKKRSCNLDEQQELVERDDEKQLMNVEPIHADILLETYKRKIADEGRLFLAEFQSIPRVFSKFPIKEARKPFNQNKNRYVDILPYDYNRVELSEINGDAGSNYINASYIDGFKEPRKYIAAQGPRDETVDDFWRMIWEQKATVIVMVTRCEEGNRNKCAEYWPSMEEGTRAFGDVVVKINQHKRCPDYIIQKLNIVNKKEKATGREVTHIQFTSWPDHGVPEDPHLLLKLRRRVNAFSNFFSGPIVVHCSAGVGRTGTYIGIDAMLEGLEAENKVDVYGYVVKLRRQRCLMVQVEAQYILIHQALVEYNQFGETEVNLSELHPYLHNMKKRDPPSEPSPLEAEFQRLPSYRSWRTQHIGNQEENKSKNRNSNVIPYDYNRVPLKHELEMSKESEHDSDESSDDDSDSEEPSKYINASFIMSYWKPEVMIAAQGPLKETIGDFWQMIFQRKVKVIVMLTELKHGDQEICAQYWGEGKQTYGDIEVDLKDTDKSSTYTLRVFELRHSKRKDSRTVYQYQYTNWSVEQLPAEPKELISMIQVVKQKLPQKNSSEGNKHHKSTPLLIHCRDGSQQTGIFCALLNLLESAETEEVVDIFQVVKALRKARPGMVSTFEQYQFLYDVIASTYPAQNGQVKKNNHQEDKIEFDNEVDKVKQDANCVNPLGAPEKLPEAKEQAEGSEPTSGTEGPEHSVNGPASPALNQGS

Cytochrome P450 1A2 = biological target: T3, Cytochrome P450 1A2 (Homo sapiens, UniProt P05177); conditions: bti-tn-5b1-4; note: in other assays of this panel Not Active means under 50% inhibition at 10 µM
T3 sequence (P05177 whole entry): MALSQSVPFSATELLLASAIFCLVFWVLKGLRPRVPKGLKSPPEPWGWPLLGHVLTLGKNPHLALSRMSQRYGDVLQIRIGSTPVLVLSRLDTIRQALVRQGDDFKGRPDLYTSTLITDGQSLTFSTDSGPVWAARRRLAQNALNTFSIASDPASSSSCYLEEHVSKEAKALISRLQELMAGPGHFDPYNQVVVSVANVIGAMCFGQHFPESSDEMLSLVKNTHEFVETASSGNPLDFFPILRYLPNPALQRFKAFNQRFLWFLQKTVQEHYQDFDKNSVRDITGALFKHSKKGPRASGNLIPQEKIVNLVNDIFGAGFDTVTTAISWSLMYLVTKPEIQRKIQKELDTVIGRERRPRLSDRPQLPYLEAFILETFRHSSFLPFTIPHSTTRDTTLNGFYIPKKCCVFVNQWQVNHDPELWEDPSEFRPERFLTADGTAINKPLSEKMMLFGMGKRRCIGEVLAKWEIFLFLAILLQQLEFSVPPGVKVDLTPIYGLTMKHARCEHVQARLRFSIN

Sequence of Delta-type opioid receptor (P41143 whole entry): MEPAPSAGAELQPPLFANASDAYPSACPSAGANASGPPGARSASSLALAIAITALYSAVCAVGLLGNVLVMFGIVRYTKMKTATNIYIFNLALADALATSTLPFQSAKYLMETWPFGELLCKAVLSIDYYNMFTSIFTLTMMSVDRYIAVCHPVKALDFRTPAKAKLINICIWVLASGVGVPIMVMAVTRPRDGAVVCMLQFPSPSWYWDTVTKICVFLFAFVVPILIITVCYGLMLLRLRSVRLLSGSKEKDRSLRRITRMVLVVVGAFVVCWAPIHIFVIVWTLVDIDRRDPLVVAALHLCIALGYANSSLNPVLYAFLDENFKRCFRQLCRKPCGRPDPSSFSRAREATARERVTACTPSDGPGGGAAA
Sequence of 5-hydroxytryptamine receptor 6 (P50406 whole entry): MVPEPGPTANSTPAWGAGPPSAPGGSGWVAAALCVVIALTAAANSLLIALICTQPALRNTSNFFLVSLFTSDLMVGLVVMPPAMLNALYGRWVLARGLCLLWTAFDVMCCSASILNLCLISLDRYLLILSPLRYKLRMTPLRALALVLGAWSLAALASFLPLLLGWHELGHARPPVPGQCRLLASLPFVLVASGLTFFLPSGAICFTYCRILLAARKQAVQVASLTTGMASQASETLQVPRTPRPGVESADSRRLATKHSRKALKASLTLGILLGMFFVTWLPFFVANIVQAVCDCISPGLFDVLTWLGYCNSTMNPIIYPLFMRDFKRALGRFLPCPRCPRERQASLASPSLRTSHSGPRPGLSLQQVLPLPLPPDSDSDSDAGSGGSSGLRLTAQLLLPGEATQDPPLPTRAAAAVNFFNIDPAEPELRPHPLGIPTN

O=C(c1ccccc1C(F)(F)F)N1CCC(Cc2ccccc2)CC1
Not Active: IC50 [1] | IC50 [2] | IC50 [3] | Ki [3] | IC50 [4] | IC50 [5] | Ki [5] | IC50 [6] | IC50 (Cytochrome P450 1A2) | Ki (Cytochrome P450 1A2)

O=C/C=C/c1ccccc1
Not Active: IC50 [1] | IC50 [2] | IC50 [3] | Ki [3] | IC50 [4] | IC50 [5] | Ki [5] | IC50 [6] | IC50 (Cytochrome P450 1A2) | Ki (Cytochrome P450 1A2)

Nc1ccc2c3c(cccc13)C(=O)NC2=O
Not Active: IC50 [1] | IC50 [2] | IC50 [3] | Ki [3] | IC50 [4] | IC50 [5] | Ki [5] | IC50 [6] | IC50 (Cytochrome P450 1A2) | Ki (Cytochrome P450 1A2)

COc1ccc(C(=O)N2CCCC2=O)cc1
Not Active: IC50 [1] | IC50 [2] | IC50 [3] | Ki [3] | IC50 [4] | IC50 [5] | Ki [5] | IC50 [6] | IC50 (Cytochrome P450 1A2) | Ki (Cytochrome P450 1A2)

O=c1cnn([C@@H]2O[C@H](CO)[C@@H](O)[C@H]2O)c(=O)[nH]1 [6-AZAURIDINE]
Not Active: IC50 [1] | IC50 [2] | IC50 [3] | Ki [3] | IC50 [4] | IC50 [5] | Ki [5] | IC50 [6] | IC50 (Cytochrome P450 1A2) | Ki (Cytochrome P450 1A2)

NCCCC(O)(P(=O)(O)O)P(=O)(O)O [ALENDRONIC ACID]
Not Active: IC50 [1] | IC50 [2] | IC50 [3] | Ki [3] | IC50 [4] | IC50 [5] | Ki [5] | IC50 [6]

CN1[C@@H]2CC[C@H]1C[C@@H](OC(=O)C(CO)c1ccccc1)C2 (some centres not stated) [ATROPINE]
Not Active: IC50 [2] | IC50 [3] | Ki [3] | IC50 [4] | IC50 [5] | Ki [5] | IC50 [6]

COc1cc(N)c(Cl)cc1C(=O)NC1CCN(CCCOc2ccc(F)cc2)CC1OC (configuration not stated) [CISAPRIDE]
Not Active: IC50 [2] | IC50 [3] | Ki [3] | IC50 [4] | IC50 [5] | Ki [5] | IC50 [6] | IC50 (Cytochrome P450 1A2) | Ki (Cytochrome P450 1A2)

COc1cc([C@@H]2c3cc4c(cc3[C@@H](O[C@@H]3O[C@@H]5CO[C@@H](C)O[C@H]5[C@H](O)[C@H]3O)[C@H]3COC(=O)[C@H]23)OCO4)cc(OC)c1O [ETOPOSIDE]
Not Active: IC50 [1] | IC50 [2] | IC50 [3] | Ki [3] | IC50 [4] | IC50 [5] | Ki [5] | IC50 [6]
